# Laboratory results taken from patent US20240150322A1, “CDK9 Inhibitors” (Biolexis Therapeutics, Inc., priority 2022, published 2024).
# Key:
# CDK9/CycT1 = molecular target: T1, CDK9/CycT1 (Homo sapiens, UniProt P50750); test: ADP-Glo kinase assay; format: biochemical
# T1 construct: purchased SignalChem
# Method: ADP-Glo assay kit was purchased from Promega and the CDK9/CycT1 protein and PDKtide substrate were purchased from SignalChem. […] The reaction was started by pre-incubating 4 μL of protein (20 nM), 2 μL of substrate (100 μM), and 2 μL of serial diluted drug in 1× assay buffer (50 mM HEPES, 3 mM MgCl2, 3 mM MnCl2, and 1 mM DTT) for 30 minutes. After pre-incubating, 4 μL of ATP (1 μM) was added to each well and incubated for an additional 90 minutes. The ADP-Glo Reagent (10 μL) and Kinase Detection Reagent (20 μL) were added to each well and incubated as recommended by Promega. The reaction was quantified by measuring luminescence and the IC50 was calculated using GraphPad Prism software.
# C4-2 = test: 2D CellTiter-Glo cell viability assay; format: cell-based, human; conditions: Homo sapiens, C4-2, 72 h
# Method: (§1) CellTiter-Glo® 2.0 Luminescent cell viability assay reagent was purchased from Promega and 22Rv1, LASCPC-01, C4-2, C4-2B and NCI-H660, DU-145, PC-3 and LNCap cell lines were obtained from ATCC and a clinical core facility at Huntsman Cancer Institute. […] The results of cell viability were obtained and IC50 values were calculated (see Table 5, below) showing sub-micromolar cell killing of these prostate cancer cells.
# [1] = system: RWPE-1 Normal Prostate Cells; test: CellTiter-Glo 2D cell viability assay in normal prostate cells; format: cell-based
# Method: (§2) Multiplexing the LDH-Glo Cytotoxicity Assay and CellTiter-Glo 2D Cell Viability Assay. […] Change in toxicity was measured using the LDH-Glo Cytotoxicity Assay by combining 50 μL diluted samples with 50 μL LDH Detection Reagent and recording luminescence after 1 hour incubation. After samples were removed for LDH measurement, an equal volume of CellTiter Glo 2D Reagent was added to the remaining cell suspension and luminescence was recorded after 30-minute incubation period.
# C4-2B = test: 2D CellTiter-Glo cell viability assay; format: cell-based; conditions: 72 h
# Method: as §1
# [2] = system: RWPE-1 Normal Prostate Cells; test: LDH-Glo cytotoxicity assay in normal prostate cells; format: cell-based; conditions: Homo sapiens, 72 hours
# Method: as §2
# LNCap = test: 2D CellTiter-Glo cell viability assay; format: cell-based; conditions: Homo sapiens, 72 hours
# Method: (§3) CellTiter-Glo® 2.0 Luminescent cell viability assay reagent was purchased from Promega and 22Rv1 and LASCPC-01 cell lines were purchased from ATCC. […] An equal volume of CellTiter-Glo 2D Reagent was added to the cell suspensions and luminescence was recorded after 30-minute incubation period. […] FIG. 2 illustrates cellular antiproliferative efficacy of a benchmark CDK9 inhibitor AD-4573 on six prostate cancer cell lines over various concentrations.
# as §1
# PC-3 = test: 2D CellTiter-Glo cell viability assay; format: cell-based; conditions: Homo sapiens, PC-3, 72 h
# Method: as §3, §1
# DU-145 = test: 2D CellTiter-Glo cell viability assay; format: cell-based; conditions: Homo sapiens; DU-145, 72 hours
# Method: as §3, §1
# 22Rv1 = test: 2D CellTiter-Glo cell viability assay; format: cell-based; conditions: Homo sapiens; 22Rv1, 72 hours
# Method: as §3, §1
# LASCPC-01 = test: 2D CellTiter-Glo cell viability assay; format: cell-based; conditions: 72 h, LASCPC-01, 72 hours
# Method: as §3, §1
# NCI-H660 = test: 2D CellTiter-Glo cell viability assay; format: cell-based; conditions: NCI-H660, 72 hours
# Method: as §3, §1
# T1 sequence (P50750 whole entry): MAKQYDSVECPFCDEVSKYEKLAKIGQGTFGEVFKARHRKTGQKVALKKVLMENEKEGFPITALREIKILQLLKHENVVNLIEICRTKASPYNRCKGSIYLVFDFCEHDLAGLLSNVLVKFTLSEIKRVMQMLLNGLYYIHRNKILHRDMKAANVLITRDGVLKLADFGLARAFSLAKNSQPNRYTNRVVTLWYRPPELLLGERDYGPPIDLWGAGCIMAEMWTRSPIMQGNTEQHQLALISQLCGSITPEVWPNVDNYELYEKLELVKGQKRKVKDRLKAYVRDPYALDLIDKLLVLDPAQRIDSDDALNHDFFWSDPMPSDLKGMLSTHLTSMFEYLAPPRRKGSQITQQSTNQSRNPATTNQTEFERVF
# T1 sequence (O60563 whole entry partner): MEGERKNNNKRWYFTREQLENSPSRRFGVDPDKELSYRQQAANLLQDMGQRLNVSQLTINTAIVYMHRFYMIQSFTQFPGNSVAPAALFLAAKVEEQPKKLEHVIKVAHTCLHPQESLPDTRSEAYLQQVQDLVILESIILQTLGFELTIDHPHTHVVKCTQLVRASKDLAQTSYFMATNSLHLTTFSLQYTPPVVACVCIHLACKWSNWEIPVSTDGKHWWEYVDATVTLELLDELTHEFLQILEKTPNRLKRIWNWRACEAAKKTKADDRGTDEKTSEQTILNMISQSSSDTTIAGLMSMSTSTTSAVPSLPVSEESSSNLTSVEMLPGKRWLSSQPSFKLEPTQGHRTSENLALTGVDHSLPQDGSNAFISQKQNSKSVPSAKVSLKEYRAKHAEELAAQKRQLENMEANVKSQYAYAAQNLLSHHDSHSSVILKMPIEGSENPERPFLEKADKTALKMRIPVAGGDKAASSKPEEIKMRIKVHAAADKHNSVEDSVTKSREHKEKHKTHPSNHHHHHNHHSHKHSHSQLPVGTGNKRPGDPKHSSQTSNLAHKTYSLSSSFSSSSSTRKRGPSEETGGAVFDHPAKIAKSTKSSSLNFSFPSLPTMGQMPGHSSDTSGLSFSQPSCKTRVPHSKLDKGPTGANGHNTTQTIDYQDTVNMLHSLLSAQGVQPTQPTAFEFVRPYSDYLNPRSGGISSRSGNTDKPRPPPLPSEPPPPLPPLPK
structure (smiles),measurement,setting,value
"CC(C)c1c2cc(-c3ccnc(N[C@H]4C[C@@H]5CCC4C5)n3)cnc2nn1C (stereo in doubt) [Compound I-14, N-((1R,2S,4R)-bicyclo[2.2.1]heptan-2-yl)-4-(3-isopropyl-2-methyl-2H-pyrazolo[3,4-b]pyridin-5-yl)pyrimidin-2-amine]",IC50,CDK9/CycT1,< 50 nM
"CC(=O)N[C@@H]1CCC[C@H](C(=O)Nc2cc(-c3cnn4c3CC(C)(C)C4)c(Cl)cn2)C1 [AZD-4573, reference compound]",IC50,C4-2,0.237 nM
same,IC50,"[1]; Homo sapiens, RWPE-1 normal prostate cells, 72 hours",8.4 nM
same,toxicity to normal prostate cells,[1]; RWPE-1,highly toxic
same,IC50,C4-2B,0.398 nM
same,IC50,[2],151 nM
same,IC50,LNCap,1150 nM
same,IC50,PC-3,400 nM
same,IC50,DU-145,151 nM
same,IC50,22Rv1,67.1 nM
same,IC50,LASCPC-01,13.5 nM
same,IC50,NCI-H660,0.221 nM
"CC(C)c1[nH]nc2ccc(-c3ccnc(N[C@H]4CC[C@H](N)C4)n3)cc12 [Compound I-7, (1S,3S)-N^1-(4-(3-isopropyl-2H-indazol-5-yl)pyrimidin-2-yl)cyclopentane-1,3-diamine]",IC50,CDK9/CycT1,< 50 nM
"CC(C)c1c2cc(-c3ccnc(N[C@H]4C[C@@H]5CCC4C5)n3)ccc2nn1C (stereo in doubt) [Compound I-13, N-((1R,2S,4R)-bicyclo[2.2.1]heptan-2-yl)-4-(3-isopropyl-2-methyl-2H-indazol-5-yl)pyrimidin-2-amine]",IC50,CDK9/CycT1,< 50 nM
"CC(C)c1c2cc(-c3ccnc(N[C@@H]4CC[C@H](N)C4)n3)ccc2nn1C [Compound I-1, (1S,3R)-[3-[4-(3-isopropyl-2-methylindazol-5-yl)pyrimidin-2-yl]aminocyclopentan-1-yl]-1,3-diamine]",IC50,CDK9/CycT1,< 50 nM
"Cc1[nH]nc2ccc(-c3ccnc(N[C@H]4CC[C@H](N)C4)n3)cc12 [Compound I-9, (1S,3S)-N^1-(4-(3-methyl-2H-indazol-5-yl)pyrimidin-2-yl)cyclopentane-1,3-diamine]",IC50,CDK9/CycT1,50 to 100 nM
"CC(C)c1c2cc(-c3ccnc(N[C@H]4CC[C@H](N)C4)n3)cnc2nn1C [Compound I-10, (1S,3S)-N^1-(4-(3-isopropyl-2-methyl-2H-pyrazolo[3,4-b]pyridin-5-yl)pyrimidin-2-yl)cyclopentane-1,3-diamine]",IC50,CDK9/CycT1,< 50 nM
"CC(C)c1nn(C)c2ncc(-c3ccnc(N[C@H]4CC[C@H](N)C4)n3)cc12 [Compound I-11, (1S,3S)-N^1-(4-(3-isopropyl-1-methyl-1H-pyrazolo[3,4-b]pyridin-5-yl)pyrimidin-2-yl)cyclopentane-1,3-diamine]",IC50,CDK9/CycT1,> 1000 nM
"Cn1cc2cc(-c3ccnc(N[C@H]4CC[C@H](N)C4)n3)ccc2n1 [Compound I-6, (1S,3S)-N^1-(4-(2-methyl-2H-indazol-5-yl)pyrimidin-2-yl)cyclopentane-1,3-diamine]",IC50,CDK9/CycT1,< 50 nM
"CC(C)c1c2nc(-c3ccnc(N[C@H]4CC[C@H](N)C4)n3)ccc2nn1C [Compound I-3, (1S,3S)-[3-[4-[3-isopropyl-2-methylpyrazolo[4,3-b]pyridin-5-yl]pyrimidin-2-yl]aminocyclopentan-1-yl]-1,3-diamine]",IC50,CDK9/CycT1,> 1000 nM
"CC(C)c1c2cc(-c3ccnc(N[C@H]4CC[C@H](N)C4)n3)cc(F)c2nn1C [Compound I-4, (1S,3S)-[3-[4-(7-fluoro-3-isopropyl-2-methylindazol-5-yl)pyrimidin-2-yl]aminocyclopentan-1-yl]-1,3-diamine]",IC50,CDK9/CycT1,< 50 nM
